Assay results: patent US20140371165A1, “Identification of NSC23925 Isomers to Reverse Multidrug Resistance in Human Cancers” (priority 2012, published 2014)
Entries after “also recorded” stand apart in the source; their conditions may differ. Counter-ions that a name gives are not always drawn.

What was measured:
SW480TR = assay: M30-Apoptosense ELISA apoptosis assay in SW480TR; assay type: cell-based, human; conditions: NSC23925b 1 μM with doxorubicin 0.5 μM, 72 hours
Experimental: Apoptosis was evaluated using the M30-Apoptosense ELISA assay kit (Peviva AB, Bromma, Sweden) according to the manufacturer's instructions. For the doxorubicin and NSC23925b treatment, MCF-7adr or SW480TR cells were seeded at 8,000 cells/per well in a 96-well plate for 24 hours before treatment. The cells were then treated with 0.5 μM of doxorubicin, 1 μM of NSC23925b, or a combination of the two drugs for an additional 72 hours. The cells were then lysed by an additional […] of 10% NP40 per well, following the manufacturer's instructions for apoptosis assay.
The effect of NSC23925b on the doxorubicin induction of apoptosis was assessed in MCF-7adr or SW480TR. cell lines. Cells were treated with either doxorubicin (0.5 μM) alone, NSC23925b (1 μM) alone, or a combination of doxorubicin and NSC23925b for 72 hours. Apoptosis was scored using the M30-Apoptosense ELISA assay.

SKOV-3TR = assay: MTT cytotoxicity assay and reversal of MDR in SKOV-3TR; assay type: cell-based, human
Source text: A panel of parental cancer cell line and their daughter resistant cell lines, displaying MDR phenotype were used in this study. Human ovarian cancer cell line SKOV-3, breast cancer cell line MCF-7 and colon cancer cell line SW480, the osteosarcoma cell line U-2OS, KHOS, uterine sarcoma cell line MESSA and its doxorubicin selected drug resistant cell line MESSA/Dx5, non-small cell lung cancer cell line H-69 and its doxorubicin selected drug resistant cell line H-69AR (overexpress MRP1) were obtained from the ATCC (Rockville, Md.). Dr. Efstathios Gonos (Institute of Biological Research & Biotechnology, Athens, Greece) provided the doxorubicin resistant U-2OS R2 (referred in the text below as U-2OSDR), KHOS R2 cell lines. Dr. Erasmus Schneider (Wadsworth Center, Albany) provided the mitoxantrane resistant breast cancer MCF-7/MX (overexpress BCRP) cell line. All the cell lines were cultured in RPMI 1640 (Invitrogen, Carlsbad, Calif.) supplemented with 10% fetal bovine serum, 100-units/ml penicillin and 100 μg/ml streptomycin (Invitrogen). Cells were incubated at 37° C. in 5% CO2-95% air atmosphere and passaged when near confluent monolayers were achieved using 2% trypsin-EDTA solution. […] The fresh chemotherapy drugs were obtained from the pharmacy at the Massachusetts General Hospital and stored at −20° C.
To evaluate for reversal of Pgp-mediated MDR, SKOV-3TR, MCF-7adr and SW480TR cell lines were seeded into 96-well tissue culture plate at 2,000 cells per well with varying concentrations of chemotherapy drugs and NSC23925b for 6 days. Cell proliferation IC50 (concentration required for 50% inhibition) and MDR reversal IC50 were determined from dose-response curves carried out in triplicate in 96-well plate. Fold of reverse resistance for individual drugs were defined as the IC50 of MDR cells without NSC23925b treatment divided by the IC50 of MDR cells treated with NSC23925b. […] Drug cytotoxicity was assessed in vitro using the MTT assay as previously described. […] Response curves were fitted with use of GraphPad PRISM 4 software (GraphPad Software).
Structure and activity relationship (SAR) of the four NSC23925 isomers for reversing MDR were evaluated in human ovarian cancer MDR cell line SKOV-3TR by MTT assay (FIGS. 1A-D). Cells were treated with the paclitaxel and NSC23925 diastereomers NSC23925a (FIG. 1A), NSC23925b (FIG. 1B), NSC23925c (FIG. 1C) and NSC23925d (FIG. 1D) in RPMI1640 complete media at the indicated concentrations. The relative sensitivity of each line to paclitaxel was determined by MTT analysis 6 days post-treatment.

MDR cancer cell lines = assay: MTT reversal of drug resistance in MDR cell lines (cell line not specified); assay type: cell-based
Source text: A panel of parental cancer cell line and their daughter resistant cell lines, displaying MDR phenotype were used in this study. Human ovarian cancer cell line SKOV-3, breast cancer cell line MCF-7 and colon cancer cell line SW480, the osteosarcoma cell line U-2OS, KHOS, uterine sarcoma cell line MESSA and its doxorubicin selected drug resistant cell line MESSA/Dx5, non-small cell lung cancer cell line H-69 and its doxorubicin selected drug resistant cell line H-69AR (overexpress MRP1) were obtained from the ATCC (Rockville, Md.). Dr. Efstathios Gonos (Institute of Biological Research & Biotechnology, Athens, Greece) provided the doxorubicin resistant U-2OS R2 (referred in the text below as U-2OSDR), KHOS R2 cell lines. Dr. Erasmus Schneider (Wadsworth Center, Albany) provided the mitoxantrane resistant breast cancer MCF-7/MX (overexpress BCRP) cell line. All the cell lines were cultured in RPMI 1640 (Invitrogen, Carlsbad, Calif.) supplemented with 10% fetal bovine serum, 100-units/ml penicillin and 100 μg/ml streptomycin (Invitrogen). Cells were incubated at 37° C. in 5% CO2-95% air atmosphere and passaged when near confluent monolayers were achieved using 2% trypsin-EDTA solution. Drug-resistant cell lines were periodically cultured in the respective drug to confirm their drug resistance characteristics. The fresh chemotherapy drugs were obtained from the pharmacy at the Massachusetts General Hospital and stored at −20° C.
To evaluate for reversal of Pgp-mediated MDR, SKOV-3TR, MCF-7adr and SW480TR cell lines were seeded into 96-well tissue culture plate at 2,000 cells per well with varying concentrations of chemotherapy drugs and NSC23925b for 6 days. Cell proliferation IC50 (concentration required for 50% inhibition) and MDR reversal IC50 were determined from dose-response curves carried out in triplicate in 96-well plate. Fold of reverse resistance for individual drugs were defined as the IC50 of MDR cells without NSC23925b treatment divided by the IC50 of MDR cells treated with NSC23925b. To test for the effect of reversal of MRP1 or BCRP-mediated MDR, H-69AR or MCF-7/MX cells were placed into 96-wells and treated with chemotherapy drugs similar as described above. Drug cytotoxicity was assessed in vitro using the MTT assay as previously described. Drugs at the concentrations utilized in the MTT assay were performed in the absence of cells to verify no change in absorbance. Response curves were fitted with use of GraphPad PRISM 4 software (GraphPad Software).

[1] = Reverse Drug Resistance by NSC23925b, value = chemotherapy drug, hydrochloride

## COc1ccc(-c2cc([C@H](O)[C@H]3CCCCN3)c3ccccc3n2)cc1 [NSC23925b, (2-(4-methoxyphenyl)quinolin-4-yl)(piperidin-2-yl)methanol hydrochloride]
SW480TR
  cell death / apoptosis, combination versus either drug alone: significantly greater cell death
SKOV-3TR; Doxorubicin, NSC23925b 0.1 μM
  fold-reversal of drug resistance: 2 fold
SKOV-3TR; Doxorubicin, NSC23925b 0.5 μM
  fold-reversal of drug resistance: 9 fold
SKOV-3TR; Doxorubicin, NSC23925b 1 μM
  fold-reversal of drug resistance: 32 fold
SKOV-3TR; Mitoxantrane, NSC23925b 0.1 μM
  fold-reversal of drug resistance: 1.2 fold
SKOV-3TR; Mitoxantrane, NSC23925b 0.5 μM
  fold-reversal of drug resistance: 2.6 fold
SKOV-3TR; Mitoxantrane, NSC23925b 1 μM
  fold-reversal of drug resistance: 8 fold
SKOV-3TR; Paclitaxel, NSC23925b 0.1 μM
  fold-reversal of drug resistance: 2 fold
SKOV-3TR; Paclitaxel, NSC23925b 0.5 μM
  fold-reversal of drug resistance: 7 fold
SKOV-3TR; Paclitaxel, NSC23925b 1 μM
  fold-reversal of drug resistance: 28 fold
SKOV-3TR; with paclitaxel, MTT 6 days post-treatment
  potency of isomer on reversing drug resistance: most potent isomer
MDR cancer cell lines
  effects on the drug sensitivities of cisplatin, carboplatin, toptecan and methotrexate: no significant effects
MDR cancer cell lines; [1]
  Decreased Drug Resistance (drug to which NSC23925b decreased resistance): Gemcitabine; also recorded: ET-743; also recorded: Mitoxantrane; also recorded: Paclitaxel; also recorded: Docetaxel; also recorded: Doxorubicin; also recorded: Vincristine; also recorded: Daunorubicin
  No Effect (drug whose resistance NSC23925b did not change): Cisplatin; also recorded: Carboplatin; also recorded: Topotecan; also recorded: Methotrexate
MDR cancer cell lines; combined with doxorubicin
  effect on doxorubicin-induced cell death (MTT cytotoxicity assay): synergistic effect
MDR cancer cell lines; ovarian, breast, uterine, colon, and sarcoma MDR cancer cell lines
  reverse MDR to paclitaxel, doxorubicin, and mitoxantrane: able to reverse MDR
